Tests used:
cardiomyocytes (CM) [1] = experiment: Mouse MI model: TUNEL staining of CM apoptosis; format: in vivo; conditions: SSP gene modRNA delivery; 7 days post-MI
Method: (§1) All surgical and experimental procedures with mice were performed in accordance with protocols approved by Institutional Animal Care and Use Committees at Temple University Animal Care and Use Committee (IACUC). C57BL6 or CM-specific MADM mice (8-12-weeks-old) were anesthetized with isoflurane. MI was induced by permanent ligation of the LAD, as previously described (Garikipati, V. N. S., et al., 2019, Nature Communications, 10:4317). Briefly, the left thoracic region was shaved and sterilized. After intubation, the heart was exposed through a left thoracotomy. A suture was placed to ligate the LAD. The thoracotomy and skin were sutured closed in layers. Excess air was removed from the thoracic cavity, and the mouse was removed from ventilation when normal breathing was established. In order to determine the effect of modRNA on cardiovascular outcome after MI, modRNAs (100 μg/heart) were injected into the infarct zone immediately after LAD ligation (Magadum A., et al., Circulation. 2020, 141 (15): 1249-1265). For examination of heart histology, hearts were collected at the end of each study, quickly washed in PBS, weighed, and fixed in 4% PFA for cryo-sectioning and immunostainings. In all experiments, the surgeon was blinded to the treatment group. For assessment of heart histology, hearts were collected at the end of each study. The hearts were excised, briefly washed in PBS, perfused with perfusion buffer, weighed and fixed in 4% PFA at 4° C. overnight. The heart blocks were transverse sectioned at 6-8 μm using cryostat. The heart sections were further processed for histological evaluation using immunostaining (see below) or histological scar staining using Masson's trichrome staining kit (Sigma) according to standard procedures. Measuring the ratio of heart weight to body weight was done using a scale. This ratio was calculated as the heart tissue weight relative to the mouse total body weight in grams (g).
Mice hearts were harvested, weighed, and fixed in 4% PFA/PBS overnight on shaker and then washed with PBS for 1 hour and incubated in 30% sucrose/PBS at 4° C. for 12-18 hours. Hearts were then fixed in OCT and frozen at −80° C. (Magadum A., et al., Circulation. 2020, 141 (15): 1249-1265). Transverse heart sections (6-8 μm) were made using a cryostat. […] For immunostaining with wheat germ agglutinin (WGA) for CM size quantification, images were captured at 40× magnification, and ImageJ was used to determine the area of each cell. Quantitative analyses involved counting of multiple fields from 5-8 mouse hearts per group, and 3-4 sections/heart (˜50 cells per field assessed, for a total ˜250 cells per sample). […] BrdU positive CMs were counted in multiple fields from three independent samples per group and 3 sections/heart. […]

cardiomyocytes (CM) [2] = experiment: Mouse MI model: immunostaining of heart sections for CM cell cycle markers (ki67, pH3, BrdU, Aurora B); format: in vivo; conditions: SSP gene modRNA delivery; 7 days post-MI
Method: as §1
Mice were injected with AAV9-GFP or AAV9-YAP1-shRNA (GeneCopoeia) through retro-orbital injection 7 days before LAD. A total of 5×10^11 viral genomes (50 μl total volume delivered) was injected per mouse. The level of YAP1 inhibition was determined at the mRNA level by qPCR 14 days post injection.
Mice hearts were harvested, weighed, and fixed in 4% PFA/PBS overnight on shaker and then washed with PBS for 1 hour and incubated in 30% sucrose/PBS at 4° C. for 12-18 hours. Hearts were then fixed in OCT and frozen at −80° C. (Magadum A., et al., Circulation. 2020, 141 (15): 1249-1265). Transverse heart sections (6-8 μm) were made using a cryostat. Frozen sections were rehydrated in PBS for 5-10 min followed by permeabilization with PBS with 0.1% Triton™ X100 (PBST) for 7-8 min. Heart sections were then treated with 3% H2O2 for 5 min and washed (3×5 min) with PBST. The samples were then blocked with PBS+10% Donkey normal serum+0.1% Triton™ X100 (PBSST) for 1 hour at room temperature. Primary antibodies (see complete list of primary antibodies used for this Example in Table 2 below) diluted in PBST were added and incubated overnight at 4° C. Slides were washed with PBST (3×5 min) followed by incubation with a secondary antibody (Invitrogen, 1:200) diluted in PBST for 90-120 min at room temperature. The samples were further washed with PBST (3×5 min) and stained with DAPI or Hoechst 33342 (1 μg/ml) diluted in PBST for 7 min. After being washed with PBST (3×7 min) and tap water (1×5 min) slides were mounted with mounting medium (VECTASHIELD®) for imaging (Magadum A., et al., Circulation. 2020, 141 (15): 1249-1265). Stained slides were stored at 4° C. All staining was performed on 4-8 hearts/group, with 2-3 sections/heart. For immunostaining with wheat germ agglutinin (WGA) for CM size quantification, images were captured at 40× magnification, and ImageJ was used to determine the area of each cell. […]

## PHGDH: modRNA encoding phosphoglycerate dehydrogenase (ORF SEQ ID NO: 6)
Cardiomyocytes (CM) [1]
  CM apoptosis (TUNEL+ CMs): inhibited
Cardiomyocytes (CM) [2]
  CM cell cycle (pH3+ CMs): partially induced

B1: PSPH: modRNA encoding phosphoserine phosphatase (ORF SEQ ID NO: 5) (nucleic acid)
DNA: ATGGTCTCCCACTCAGAGCTGAGGAAGCTCTTCTGTTCAGCGGATGCAGTGTGCTTTGATGTTGATAGCACCGTCATCAGAGAAGAAGGAATCGATGAGCTGGCCAAATTCTGTGGTGTGGAGGCCGCAGTGTCTGAAATGACACGGAGAGCCATGGGAGGAGCATTGCCTTTTAAAGACGCGCTCACTCAGCGCCTGGCACTGATCCAGCCCTCCAGGGATCAAGTCCAGAGGCTCCTAGCTGAGCACCCGCCACATCTGACTCCTGGCATAAGGGAGCTGGTAAGCCGCCTCCAGGAGCGTAATGTCCAGGTGTTCCTCATCTCTGGTGGCTTTCGGAGCATTGTGGAGCACGTTGCTGCAAAGCTCAATATCCCAACAACCAATGTGTTTGCCAATAGGCTGAAGTTCTACTTTAATGGTGAGTACGCAGGTTTTGATGAGATGCAGCCGACAGCCGAGTCGGGTGGGAAAGGAAAGGTTATTCGGTTTTTAAAGGAAAAATTTCACTTTAAGAAAATAATCATGATTGGAGATGGAGCTACGGACATGGAAGCCTGTCCTCCTGCTGATGCTTTCATTGGCTTTGGAGGCAATGTGATCAGGCAGCAGGTTAAGGACAACGCCAAGTGGTACATCACTGACTTCGTGGAGCTGCTGGGAGAACTGGAGGAGTGA
modifications: modRNA
Cardiomyocytes (CM) [1]
  CM apoptosis (TUNEL+ CMs): inhibited
Cardiomyocytes (CM) [2]
  CM cell cycle (pH3+ CMs): partially induced

From patent US20250215403A1, “Compositions and Methods for Cardiac Tissue Regeneration” (Temple University - Of The Commonwealth System Of Higher …, priority 2022, published 2025)
